Source: patent US10517889B2, “Modulators of SMAD7 expression” (Ionis Pharmaceuticals, Inc., priority 2017, dated 2019)
Strand notation (5' to 3'): a small letter for the sugar, then the base; units joined by * are phosphorothioate-linked, units joined directly phosphodiester-linked; [ ] holds rarer units or linkages, { } end groups; capitals alone tell only the bases. e = 2'-O-(2-methoxyethyl) (MOE); [5mC] = 5-methylcytosine; d = 2'-deoxy (DNA)

tested on: human SMAD7 mRNA; experiment: Antisense inhibition of human SMAD7 mRNA expression in Hep3B cells by 5-10-5 MOE gapmers, single concentration, electroporation, RT-PCR (Example 1, Study 1 and 2); assay type: cell-based; conditions: Study 2, electroporation with 15,000 nM antisense oligonucleotide, 5-10-5 MOE gapmers targeting SEQ ID NO: 1 and 2
Method in brief: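 Readout is percent SMAD7 mRNA inhibition versus untreated cells, measured by qRT-PCR (RTS5062) and corrected for total RNA by RIBOGREEN. Oligonucleotide, 5,000 nM or 15,000 nM, was delivered by electroporation into Hep3B cells at 20,000 per well. RNA was collected about 24 h later.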

Row | Substance | % inhibition of SMAD7 mRNA expression [%]
1 | 771524 (antisense eT*eT*eG*e[5mC]*eA*dT*dG*dA*dA*dA*dA*dG*d[5mC]*dA*dA*eG*e[5mC]*eA*e[5mC]*eT) [compound 771524] | 19
2 | 771526 (antisense eG*eT*eT*eT*eG*d[5mC]*dA*dT*dG*dA*dA*dA*dA*dG*d[5mC]*eA*eA*eG*e[5mC]*eA) [compound 771526] | 26
3 | 771527 (antisense eG*eA*eG*eT*eT*dT*dG*d[5mC]*dA*dT*dG*dA*dA*dA*dA*eG*e[5mC]*eA*eA*eG) [compound 771527] | 0
4 | 771532 (antisense eA*eG*eA*eA*eG*dA*dA*dA*dA*d[5mC]*d[5mC]*dA*dA*d[5mC]*d[5mC]*eA*eA*e[5mC]*eA*eA) [compound 771532] | 0
5 | 771534 (antisense eA*eA*e[5mC]*eA*eG*dA*dA*d[5mC]*dA*d[5mC]*dA*dA*dA*d[5mC]*dG*eA*eG*eG*eA*e[5mC]) [compound 771534] | 0
6 | 771535 (antisense eA*eA*e[5mC]*eA*eA*dA*dA*d[5mC]*dA*dG*dA*dA*d[5mC]*dA*d[5mC]*eA*eA*eA*e[5mC]*eG) [compound 771535] | 17
7 | 771540 (antisense eT*e[5mC]*eA*eT*eA*dA*dG*d[5mC]*dT*dA*dT*dT*dT*d[5mC]*dT*e[5mC]*eA*eA*eA*eG) [compound 771540] | 0
8 | 771542 (antisense eA*e[5mC]*eA*eA*eT*dT*d[5mC]*dT*dT*dT*dT*d[5mC]*dA*dT*dA*eA*eG*e[5mC]*eT*eA) [compound 771542] | 0
9 | 771543 (antisense e[5mC]*e[5mC]*e[5mC]*e[5mC]*eA*dA*d[5mC]*dA*dA*dT*dT*d[5mC]*dT*dT*dT*eT*e[5mC]*eA*eT*eA) [compound 771543] | 36
10 | 771548 (antisense eG*eG*eT*eG*eT*d[5mC]*d[5mC]*dT*dG*d[5mC]*d[5mC]*dG*dA*dT*d[5mC]*eA*eT*eA*e[5mC]*e[5mC]) [compound 771548] | 19
11 | 771550 (antisense eT*eG*e[5mC]*eT*eT*d[5mC]*d[5mC]*d[5mC]*d[5mC]*dT*d[5mC]*dT*dT*d[5mC]*d[5mC]*eT*eA*eT*e[5mC]*eA) [compound 771550] | 4
12 | 771551 (antisense eA*eT*eT*eT*e[5mC]*dT*dG*d[5mC]*dT*dT*d[5mC]*d[5mC]*d[5mC]*d[5mC]*dT*e[5mC]*eT*eT*e[5mC]*e[5mC]) [compound 771551] | 18
13 | 771558 (antisense eA*eA*eA*eT*eG*dA*dT*dG*dA*d[5mC]*d[5mC]*dG*d[5mC]*d[5mC]*d[5mC]*e[5mC]*e[5mC]*e[5mC]*eT*eT) [compound 771558] | 7
14 | 771559 (antisense eA*eA*eG*eT*eG*dA*dA*dA*dT*dG*dA*dT*dG*dA*d[5mC]*e[5mC]*eG*e[5mC]*e[5mC]*e[5mC]) [compound 771559] | 49
15 | 771564 (antisense eG*e[5mC]*e[5mC]*eG*e[5mC]*dA*d[5mC]*dA*d[5mC]*dT*d[5mC]*dA*d[5mC]*dA*d[5mC]*eT*e[5mC]*eA*e[5mC]*eA) [compound 771564] | 28
16 | 771566 (antisense eG*eA*e[5mC]*eA*e[5mC]*dA*dA*dA*dA*d[5mC]*dA*dA*dA*dG*dA*eG*e[5mC]*eA*e[5mC]*eG) [compound 771566] | 28
17 | 771567 (antisense eG*eG*eG*eA*e[5mC]*dA*dT*d[5mC]*d[5mC]*dA*dT*dA*dA*dG*dA*eG*eA*e[5mC]*eA*e[5mC]) [compound 771567] | 39
18 | 771575 (antisense eA*e[5mC]*e[5mC]*eG*e[5mC]*dT*dT*dG*dG*dG*dA*d[5mC]*dT*dG*d[5mC]*eA*eA*eA*e[5mC]*e[5mC]) [compound 771575] | 47

same assay, conditions: electroporation with 15,000 nM antisense oligonucleotide (Study 2), 5-10-5 MOE gapmers targeting SEQ ID NO: 1 and 2

Row | Substance | % Inhibition of SMAD7 mRNA [%]
19 | 771528 (antisense eA*eA*eA*eG*eA*dG*dT*dT*dT*dG*d[5mC]*dA*dT*dG*dA*eA*eA*eA*eG*e[5mC]) [compound 771528] | 12
20 | 771536 (antisense eA*eG*e[5mC]*eG*eA*dA*dA*d[5mC]*dA*dA*dA*dA*d[5mC]*dA*dG*eA*eA*e[5mC]*eA*e[5mC]) [compound 771536] | 25
21 | 771544 (antisense eA*eA*eA*eA*e[5mC]*d[5mC]*d[5mC]*d[5mC]*d[5mC]*dA*dA*d[5mC]*dA*dA*dT*eT*e[5mC]*eT*eT*eT) [compound 771544] | 16
22 | 771560 (antisense e[5mC]*eT*eG*eA*e[5mC]*dA*dA*dG*dT*dG*dA*dA*dA*dT*dG*eA*eT*eG*eA*e[5mC]) [compound 771560] | 0
23 | 771568 (antisense e[5mC]*eT*eG*e[5mC]*eA*dA*dA*d[5mC]*d[5mC]*dT*d[5mC]*dT*d[5mC]*dT*dG*e[5mC]*eT*eG*eG*eG) [compound 771568] | 26

same assay, conditions: electroporation, 15,000 nM antisense oligonucleotide (Study 2), 5-10-5 MOE gapmers targeting SEQ ID NO: 1 and 2

Row | Substance | % inhibition of SMAD7 mRNA expression [%]
24 | 771522 (antisense eG*e[5mC]*eA*eT*eG*dA*dA*dA*dA*dG*d[5mC]*dA*dA*dG*d[5mC]*eA*e[5mC]*eT*e[5mC]*eA) [compound 771522] | 29
25 | 771528 (antisense eA*eA*eA*eG*eA*dG*dT*dT*dT*dG*d[5mC]*dA*dT*dG*dA*eA*eA*eA*eG*e[5mC]) [compound 771528] | 4
26 | 771529 (antisense e[5mC]*eG*eA*e[5mC]*e[5mC]*dA*dA*dA*dG*dA*dG*dT*dT*dT*dG*e[5mC]*eA*eT*eG*eA) [compound 771529] | 0
27 | 771530 (antisense eA*eA*eA*eA*eA*d[5mC]*dG*dA*d[5mC]*d[5mC]*dA*dA*dA*dG*dA*eG*eT*eT*eT*eG) [compound 771530] | 16
28 | 771536 (antisense eA*eG*e[5mC]*eG*eA*dA*dA*d[5mC]*dA*dA*dA*dA*d[5mC]*dA*dG*eA*eA*e[5mC]*eA*e[5mC]) [compound 771536] | 0
29 | 771537 (antisense e[5mC]*eA*eA*eA*eG*dA*dG*d[5mC]*dG*dA*dA*dA*d[5mC]*dA*dA*eA*eA*e[5mC]*eA*eG) [compound 771537] | 16
30 | 771538 (antisense eT*eT*eT*e[5mC]*eT*d[5mC]*dA*dA*dA*dG*dA*dG*d[5mC]*dG*dA*eA*eA*e[5mC]*eA*eA) [compound 771538] | 24
31 | 771544 (antisense eA*eA*eA*eA*e[5mC]*d[5mC]*d[5mC]*d[5mC]*d[5mC]*dA*dA*d[5mC]*dA*dA*dT*eT*e[5mC]*eT*eT*eT) [compound 771544] | 0
32 | 771545 (antisense e[5mC]*e[5mC]*eA*eA*eA*dA*dA*dA*dA*d[5mC]*d[5mC]*d[5mC]*d[5mC]*d[5mC]*dA*eA*e[5mC]*eA*eA*eT) [compound 771545] | 21
33 | 771546 (antisense eT*eA*e[5mC]*e[5mC]*eT*dG*d[5mC]*d[5mC]*d[5mC]*d[5mC]*dT*dT*d[5mC]*dT*dT*e[5mC]*e[5mC]*eA*eA*eA) [compound 771546] | 26
34 | 771553 (antisense eT*eG*eG*eT*eG*d[5mC]*dT*dT*dG*dG*dA*dT*dT*dT*d[5mC]*eT*eG*e[5mC]*eT*eT) [compound 771553] | 38
35 | 771554 (antisense eT*eT*eT*eG*eG*dT*dG*dG*dT*dG*d[5mC]*dT*dT*dG*dG*eA*eT*eT*eT*e[5mC]) [compound 771554] | 20
36 | 771560 (antisense e[5mC]*eT*eG*eA*e[5mC]*dA*dA*dG*dT*dG*dA*dA*dA*dT*dG*eA*eT*eG*eA*e[5mC]) [compound 771560] | 0
37 | 771561 (antisense e[5mC]*eA*e[5mC]*eT*e[5mC]*d[5mC]*dT*dG*dA*d[5mC]*dA*dA*dG*dT*dG*eA*eA*eA*eT*eG) [compound 771561] | 30
38 | 771562 (antisense eA*e[5mC]*eA*e[5mC]*eA*d[5mC]*dA*d[5mC]*dT*d[5mC]*d[5mC]*dT*dG*dA*d[5mC]*eA*eA*eG*eT*eG) [compound 771562] | 30
39 | 771568 (antisense e[5mC]*eT*eG*e[5mC]*eA*dA*dA*d[5mC]*d[5mC]*dT*d[5mC]*dT*d[5mC]*dT*dG*e[5mC]*eT*eG*eG*eG) [compound 771568] | 17
40 | 771569 (antisense eG*eG*eA*e[5mC]*eT*dG*d[5mC]*dA*dA*dA*d[5mC]*d[5mC]*dT*d[5mC]*dT*e[5mC]*eT*eG*e[5mC]*eT) [compound 771569] | 30
41 | 771577 (antisense eT*eG*e[5mC]*e[5mC]*eT*d[5mC]*dT*dG*d[5mC]*d[5mC]*d[5mC]*d[5mC]*dA*d[5mC]*dT*eG*eA*eG*e[5mC]*eG) [compound 771577] | 21
42 | 771578 (antisense e[5mC]*eT*eG*e[5mC]*e[5mC]*dT*d[5mC]*dT*dG*d[5mC]*d[5mC]*d[5mC]*d[5mC]*dA*d[5mC]*eT*eG*eA*eG*e[5mC]) [compound 771578] | 50

same assay, conditions: electroporation, 15,000 nM, approximately 24 hours, relative to untreated control cells, gapmers targeting SEQ ID NO: 1 and 2

Row | Substance | % inhibition of SMAD7 mRNA expression [%]
43 | 771525 (antisense eT*eT*eT*eG*e[5mC]*dA*dT*dG*dA*dA*dA*dA*dG*d[5mC]*dA*eA*eG*e[5mC]*eA*e[5mC]) [compound 771525] | 28
44 | 771533 (antisense e[5mC]*eA*eA*eA*e[5mC]*dG*dA*dG*dG*dA*d[5mC]*dG*dA*dG*dA*eA*eG*eA*eA*eG) [compound 771533] | 2
45 | 771541 (antisense eT*e[5mC]*eT*eT*eT*dT*d[5mC]*dA*dT*dA*dA*dG*d[5mC]*dT*dA*eT*eT*eT*e[5mC]*eT) [compound 771541] | 35
46 | 771549 (antisense e[5mC]*e[5mC]*eT*e[5mC]*eT*dT*d[5mC]*d[5mC]*dT*dA*dT*d[5mC]*dA*dG*dG*eG*eT*eG*eT*e[5mC]) [compound 771549] | 49
47 | 771557 (antisense eA*eT*eG*eA*e[5mC]*d[5mC]*dG*d[5mC]*d[5mC]*d[5mC]*d[5mC]*d[5mC]*d[5mC]*dT*dT*e[5mC]*eA*eT*eA*e[5mC]) [compound 771557] | 19
48 | 771565 (antisense e[5mC]*eT*eG*e[5mC]*e[5mC]*dG*d[5mC]*dT*d[5mC]*d[5mC]*dT*dG*d[5mC]*dA*d[5mC]*eA*e[5mC]*eG*e[5mC]*eG) [compound 771565] | 55
